For 128 compounds, logD and logP results are on record in the SangsterLogP compilation.

The data set is described as follows: method code SF, from Hansch, C. & Leo, A. (1987). Log P database [Dataset]. Pomona College Medicinal Chemistry Project.

On to `CCCN(CCC)S(=O)(=O)c1ccc(C(=O)O)cc1`, for which the logD (as a rule, the decadic logarithm of the distribution of all forms, ionised or not, between an organic phase and buffer at a given pH) (pH 1.0) came to 3.21.

Take `CC1CCCC1`: the logP (as a rule, the decadic logarithm of the partition coefficient of the neutral form, usually between octanol and water) was found to be 3.37.

The compound `CCCCNC(N)=O` returned a logP of 0.41.

Regarding `N#Cc1ccc(OC(=O)CNC(=O)c2ccccc2)cc1`, the logP worked out at 2.1.

In turn, `ClC(Cl)(Cl)c1ccc(C(Cl)(Cl)Cl)cc1` yielded a logP of 4.62.

On to `CCc1cccs1`, for which the logP came to 2.87.

Compound `C[C@]12CCC(=O)C=C1CC[C@@H]1[C@@H]2CC[C@]2(C)C(=O)CC[C@@H]12` showed a logP of 2.75. This logP and that of the compound before are within 0.2 log units of each other.

`CNC(=O)C=C(C)OP(=O)(OC)OC` yielded a logP of -0.2.

The compound `CC(=O)Oc1ccccc1Br` had a logP of 2.2.

As to `CCCCOC(=O)c1cccnc1`, the logD (pH 7.0) worked out at 2.27.

Consider `Cc1nnc2n1-c1sc(Br)cc1C(c1ccccc1Cl)=NC2`, for which the log partition coefficient (logP) turned out to be 2.79.

The compound `[N-]=[N+]=Nc1ccccc1` had a logP of 2.59.

The compound `[O-][N+](=Cc1c(Cl)cccc1Cl)c1ccccc1` showed a logP of 2.16.

In the case of `CON=C(C(=O)NC1C(=O)N2C(C(=O)OCOC(=O)C(C)(C)C)=C(CSc3nnnn3C)CSC12)c1csc(N)n1` (stereo not drawn), the logD (pH 6.6) came out at 1.74.

Under “pH 13.0”, `COc1cc(Cc2cnc(N)nc2N)cc(OC)c1N(C)C` returned a logD of 1.51.

`C=CCn1c(C)c(N(C)C)c(=O)n(-c2ccccc2)c1=O` came in with a logD (pH 7.4) of 1.44.

As to `O=CNc1nccs1`, the logP came out at 0.54.

In turn, `CS(=O)(=O)Oc1ccccc1Cc1cnc(N)nc1N` returned a logD (pH 13.0) of 0.71.

Turning to `CCC(CC)C1=Nc2ccccc2S(=O)(=O)N1`, the logP worked out at 1.88.

Consider `O=c1[nH]c2ccccc2o1`, for which the logP stood at 1.16.

`C[C@@H]1C[C@H]2[C@@H]3C[C@H](F)C4=CC(=O)C(Cl)=C[C@]4(C)[C@@]3(F)[C@@H](O)C[C@]2(C)[C@@]1(O)C(=O)CO` had a lipophilicity (logP) of 2.58.

Regarding `O=c1n[n+]([O-])ccn1Cc1ccccc1`, the logP amounted to 0.19.

Compound `FC(F)F` had a logP of 0.64.

Regarding `CCCCOc1ccc(C(N)=O)cc1`, the logP came out at 2.48.

In turn, `O=[N+]([O-])c1ccc(C=Cc2nccn2Cc2ccccc2)o1` displayed a logP of 1.55.

`CCOP(=S)(OCC)Oc1ncn(-c2ccccc2)n1` displayed a lipophilicity (logP) of 3.55.

`Cc1ccncc1` showed a logP of 1.22.

Compound `O=C(Nc1ccccc1)c1cccnc1` had a logP of 1.73.

Turning to `CNC(=O)Oc1cc(Cl)ccc1Cl`, the logP came out at 2.44.

With `CN[C@@H](C)Cc1ccccc1`, for the setting “pH 13.0”, the logD was 2.07.

On to `CC(=O)c1ccccc1C(=O)O`, for which the logD (pH 1.0) stood at 0.81.

`Oc1ccccc1-c1ccccc1` came in with a logP of 3.09.

As for `COC(=O)c1ccccc1C(=O)O`, the logD (pH 1.0) is 1.13.

`CN(C(=O)CCSC#N)c1ccc(S(=O)(=O)N(C)C)cc1` had a logP of 0.84.

For the compound `CCS(=O)(=O)c1ccc(S(N)(=O)=O)c2ccccc12`, the logP was 1.24.

`Cc1cc(C)cc(OC(=O)CNC(=O)c2ccccc2)c1`: the logP is 3.4.

In turn, `COC(=O)CCC(=O)N(C)c1ccc(S(=O)(=O)N(C)C)cc1` displayed a logP of 0.43.

For `OCCCC(F)(F)F`, the logP is 0.9.

The compound `N#CSCc1ccccc1` registered a logP of 1.99.

As for `Nc1cc(=O)[nH]cn1`, the logP is -0.99.

As to `CCOC(=O)c1ccccc1N`, the lipophilicity (logP) came to 2.57.

Where the note is “pH 8.0”, `COc1ccc(-c2nc3ccccc3[nH]2)c(OC)c1` displayed a logD of 2.59.

The compound `COc1cc(C=O)ccc1OCCOC(=O)c1ccccc1Cl` returned a logP of 3.21.

`O=C1C=CC(=O)c2c(O)cccc21`: the logP amounted to 1.92.

`O=S1(=O)NC(C2CC2)=Nc2cc(Cl)ccc21` registered a log partition coefficient (logP) of 1.98. This logP and that of the compound before are within 0.2 log units of each other.

Regarding `ONc1ccccc1`, the logP is 0.79.

Regarding `Cc1ccccc1C(O)c1ccccc1` (stereo not drawn), the logP was determined as 3.06.

`CCN(CC)c1c(C)n(-c2ccccc2)c(=O)n(CC)c1=O` displayed a log distribution coefficient (logD) (pH 7.4) of 2.78.

In turn, `O=c1[nH]c(=O)n([C@H]2C[C@H](O)[C@@H](CO)O2)cc1Br` showed a logP of -0.29.

In turn, `Cc1nnc(SCc2ccccc2)s1` displayed a logP of 2.35.

With `CC(=O)c1csc2ccccc12`, the logP amounted to 2.78.

Compound `CCOC(=O)C(=Cc1ccccc1OC)C(=O)OCC` came in with a logP of 3.29.

As for `CCCCOC1NC(=O)NC(=O)C1=[N+]=[N-]` (stereo not drawn), the logP is -0.55.

Turning to `NC(=O)Nc1ccc(C(O)C(CO)NC(=O)C(Cl)Cl)cc1` (stereo not drawn), the logP was -0.6.

Take `Cn1ccc(=O)c2ccccc21`: the logP was determined as 0.44.

Consider `Nc1cccc(Cl)c1`, for which the logP was 1.9.

As to `Cc1ccc([N+]([O-])=NC#N)cc1`, the logP amounted to 2.39.

`CC1=Nc2c(Cl)cccc2S(=O)(=O)N1` gave a logP of 0.72.

For `CCOc1ccccc1OC`, the logP was 1.73.

In turn, `C=C(C)C1Cc2c(ccc3c2OC2COc4cc(OC)c(OC)cc4C2C3=O)O1` (stereo not drawn) displayed a logP of 4.1.

`OCc1cccs1` had a logP of 0.87.

On to `CCC1=Nc2cc(Cl)ccc2S(=O)(=O)N1`, for which the logP is 1.61.

As to `CCNC(N)=O`, the logP was -0.74.

For `CCCCNP(=O)(OC)Oc1cc(Cl)c(Cl)cc1Cl` (stereo not drawn), the logP amounted to 4.18.

`COc1cc(S(C)=O)ccc1-c1cn2ccncc2n1` (stereo not drawn) returned a logP of 1.11.

The compound `CCOP(=S)(OCC)SCS(=O)C(C)(C)C` (stereo not drawn) yielded a logP of 2.21.

For `CCOC(=O)CNCCCCCSc1c2[nH]cnc2nc[n+]1[O-]`, the logP amounted to 0.87.

For the compound `CCOC(=O)C(=O)OCC`, the logP was 0.56.

Take `Nc1cccc2cc3ccccc3nc12`: the logP worked out at 3.26.

Take `CCOc1ccccc1NC(C)=O`: the logP was found to be 1.49.

For `CC(=O)OCC1=C(C(=O)O)N2C(=O)C(NC(=O)CSc3cc(Cl)ccc3Cl)C2SC1` (stereo not drawn), under “pH 3.0”, the logD is 1.66.

With `CSCCC(=O)N(C)c1ccc(S(=O)(=O)N(C)C)cc1`, the logP turned out to be 0.99.

Regarding `O=C(O)c1ccccc1-c1ccccc1`, under “pH 1.0”, the logD came to 2.89.

`CC(O)C(C)(C)C(O)C(=O)OCC1=CC[N+]2([O-])CCC(O)C12` (stereo not drawn) displayed a logD (pH 7.4) of -1.52.

Consider `CC(C)(C)CC1=Nc2ccc(Cl)cc2S(=O)(=O)N1`, for which the logP was 2.71.

In turn, `O=C(Nc1ccccc1)c1cc(N2CC2)c([N+](=O)[O-])cc1[N+](=O)[O-]` registered a logP of 2.23.

On to `CC(=O)Nc1ccccc1[N+](=O)[O-]`, for which the logP came out at 1.05.

Compound `CCOC(=O)N=[N+]([O-])c1ccccc1` yielded a logP of 2.53.

For the compound `CCN(CC)C(=O)[C@@H]1C=C2c3cccc4[nH]cc(c34)C[C@H]2N(C)C1`, the logP amounted to 2.95.

In the case of `CC(=O)NO`, the logP is -1.59.

In the case of `COC[C@H]1O[C@@H](O)[C@H](NC(=O)N(CCCl)N=O)[C@@H](OC)[C@@H]1OC`, the logP was determined as 0.8.

`O=c1[nH]c(=O)c2[nH]cnc2[nH]1` came in with a logP of -0.73.

For `CC(=O)CCC(=O)N(C)c1ccc(S(=O)(=O)N(C)C)cc1`, the logP stood at 0.2.

With `O=NN(CCF)C(=O)NC1CCC(NC(=O)N(CCF)N=O)CC1` (stereo not drawn), the logP was determined as 1.34.

Consider `COc1cc(C=NO)ccc1OCCO`, for which the logP turned out to be 0.82.

Turning to `CCc1ccsc1`, the logP came out at 2.82.

Compound `Oc1ccccc1/C=N/c1ccccc1` had a logP of 3.09.

Compound `CN(C)C(=O)CCc1ccco1` returned a logP of 0.62.

Consider `NN=C(c1ccccc1)c1ccccc1`, for which the logP amounted to 2.79.

In turn, `O=S(=O)(Cc1ccccc1)c1ccccc1` yielded a logP of 2.05.

Where the note is “pH 0.7”, `O=C1CC(C(=O)O)Oc2ccccc21` (stereo not drawn) showed a logD of 1.26.

In turn, `CCSCC1=Nc2cc(Cl)ccc2S(=O)(=O)N1` registered a logP of 2.26.

Consider `Cc1ccc2[nH]c(CCc3nc4cc(C)ccc4[nH]3)nc2c1`, for which the logP is 1.39.

In turn, `CN(C)/N=N/c1ccccc1C(=O)NNC(=O)CC#N` came in with a logP of 1.44.

For `c1ccc(OCCOc2ccccc2)cc1`, the logP came to 3.81.

Compound `FC(F)Cl` gave a logP of 1.08.

`CC(C)(O)C(Cl)(Cl)Cl` returned a logP of 2.03.

The compound `CC(=O)Nc1ccc(N(C)C)cc1` had a logP of 1.

`CC(=O)c1cccc(C(C)=O)c1` yielded a logD (pH 7.0) of 1.43.

For the setting “pH 5.4”, `O=C(c1ccccc1)c1cccc(NS(=O)(=O)C(F)F)c1` yielded a logD of 2.86.

`CCCCC1OC(=O)c2ccccc21` (stereo not drawn) came in with a logP of 2.8.

As for `OCc1ccoc1`, the logP is 0.3.

`O=C(C(=O)c1ccco1)c1ccco1` had a logP of 1.24.

Consider `CC(C)C(=O)Nc1ccccc1`, for which the logP worked out at 1.95.

For the compound `CCc1ccccc1NC(C)=O`, the logP came out at 1.33.

On to `O=C1NC(c2cccc3ccccc23)Nc2ccccc21` (stereo not drawn), for which the logP was found to be 2.96.

Turning to `Sc1ccccc1`, the logP came out at 2.52.

In turn, `C=CCN(C)/N=N/c1ccc(C(N)=O)cc1` returned a logP of 2.09.

The compound `CN(C)C(=O)Nc1ccc(Br)cc1` registered a logP of 2.19.

`COc1cc2c(c3c1c(=O)c1ccccc1n3C)C=CC(C)(C)O2` came in with a logP of 3.67.

Regarding `CC(C)c1ccc(O)c(=O)cc1`, the logD (pH 5.0) worked out at 1.89.

As for `CN(c1ccccc1)c1ccccc1`, where the note is “pH 13.0”, the logD stood at 3.9.

As for `CNC(=O)COc1ccccc1`, the logP was found to be 1.02.

Consider `CCN(CC)CCNc1ccc(C)c(Cl)c1`, for which the lipophilicity (logP) came out at 4.14.

The compound `CCC1(CCC(C)C)C(=O)NC(=S)NC1=O` displayed a logP of 2.98.

`c1ccc(-c2cccs2)cc1` gave a logP of 3.74.

In the case of `CC1(C)Cc2cccc(O)c2O1`, the logP amounted to 2.08.

Compound `CN(C)/N=N/c1cccc([N+](=O)[O-])c1` came in with a logP of 2.75.

`CCOC(=O)CC(=O)C=Cc1ccc(C)cc1`: the logP stood at 2.63.

Regarding `CCCCC1OC(=O)c2cc(NC(C)=O)ccc21` (stereo not drawn), the logP was determined as 2.77.

Compound `N#Cc1ccc(C(N)=O)cc1` came in with a logP of 0.48.

As to `CC(C)c1cccc(C(C)C)c1N`, the logP was 3.18.

On to `CCCCCC(=O)Nc1ccccc1`, for which the logP turned out to be 3.28.

`CCOS(=O)(=O)c1ccc(C)cc1` yielded a logP of 1.81.

`N#Cc1c[nH]c2ccccc12` returned a logP of 2.32.

In turn, `O=C(O)CSc1ccccc1` yielded a logD (pH 1.0) of 1.88.

In turn, `C(=N\c1ccccc1)/c1ccccc1` yielded a logP of 2.82.

In the case of `CCC1OC(=O)C(C)C(OC2CC(C)(OC)C(O)C(C)O2)C(C)C(OC2OC(C)CC(N(C)C)C2O)C(C)(O)CC(C)C(=O)C(C)C(OC(C)=O)C1C` (stereo not drawn), the logP is 3.32.
